Results from publication PMC8885657, “HPV infection alters vaginal microbiome through down-regulating host mucosal innate peptides used by Lactobacilli as amino acid sources” (Nature Communications, 2022).
Where no end group is shown, it is not given here.

How the values were obtained:
[1] = system: Lactobacillus crispatus DSM 20356; assay: Antimicrobial assay (surviving colonies, CFU count); format: cell-based; conditions: peptides pre-incubated with 2 mM DTT 30 min 37 °C; 6 h with bacteria; n = 6
Protocol: Bacterial strains Lactobacillus crispatus DSM 20356, Lactobacillus iners CIP 105923 and Garnerella vaginalis CCUG 43336 were kindly provided by the Department of Clinical Microbiology at University Hospital Center of Liege. Lactobacillus jensenii LMG 6414 was obtained from BCCM/LMG Bacteria Collection (University of Gent, Belgium). Log-phase bacteria were grown on Columbia agar with 5% sheep blood (Becton Dickinson, Franklin Lakes, NJ, USA) at 37 °C in a humidified CO2 atmosphere (Lactobacilli) or in anaerobic jars (G. vaginalis). To analyze the antimicrobial effect of innate peptides expressed by vaginal/cervical mucosa, 5 × 10^4 colony-forming unit (CFU)/ml were mixed with different peptides (concentration range: 1–10 µg/ml) in 10 mM sodium phosphate buffer (SPB) (final volume 100 µl) and incubated for 45 min to 9 h at 37 °C. Where indicated, the peptides were incubated with 2 mM dithiothreitol (DTT) (Invitrogen, Carlsbad, CA, USA) for 30 min at 37 °C before adding the bacteria. In indicated experiments, incubation was carried out in potassium phosphate buffer (KPB) (pH: 7.4, 10 mM). The following peptides were tested: HβD1 (PeptaNova, Sandhausen, Germany), HβD2 (PeptaNova), HβD3 (PeptaNova), HβD4 (PeptaNova), HD-5 (PeptaNova), HD-6 (PeptaNova), elafin (PeptaNova), S100A7 (Abnova, Taipei City, Taiwan) and SLPI (R&D Systems, Minneapolis, MI, USA). Bacterial suspensions were then plated on Columbia Blood agar plates for 24–48 h to determine CFU. High-resolution images for each condition were taken. Colony detection and counts were finally performed using ImageJ software (NIH, Bethesda, MD, USA) and verified by manual counting.

[2] = system: defensin/elafin mRNA in immortalized human keratinocytes (HaCaT cells); assay: RT-qPCR of innate peptide expression in non-infected immortalized keratinocytes (TNFα/LPS, siRNA, inhibitors); format: cell-based

| Molecule | antimicrobial/protective activity in reducing environment [1] | TNFα/LPS-induced defensin/elafin mRNA levels [2] |
| --- | --- | --- |
| HβD3: epithelial member of the defensin family, host defense peptide (PeptaNova) (GIINTLQKYYCRVRGGRCAVLSCLPKEEQIGKCSTRGRKCCRRKK; not fully specified; ends and bridges not checked; UniProt P81534 23-67, looked up) | slight increase in the antibacterial activity |  |
| Cc1ccc(S(=O)(=O)/C=C/C#N)cc1 [BAY 11-7082, reference compound] |  | significant decrease |
